From patent US20220017512A1 (SHANGHAI ENNOVABIO PHARMACEUTICALS CO., LTD., priority 2018, published 2022) come the findings set out here.

Data set [1] has as its target T1, Recombinant human TRKB (Homo sapiens, UniProt Q16620).
T1 construct: purchased Carna Biosciences
The experiment in a line: In vitro activity test on TRKB kinase (HTRF KinEASE TK). The class given is biochemical. The following applies: 4.77 μM ATP, 50 min. The procedure, abridged: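 Recombinant human TRKB (0.037 ng/μL) phosphorylated 1 μM biotinylated TK substrate at 4.77 μM ATP, 5 mM MgCl2, 1% DMSO, 50 min at room temperature; compounds 1 μM–0.05 nM. HTRF KinEASE detection overnight; 665/620 ratio converted to inhibition and IC50 from 4-parameter fit.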

Data set [2] deals with T2, recombinant human TRKA (G595R) (Homo sapiens, UniProt P04629, G595R).
T2 construct: purchased SignalChem
The experiment in a line: In vitro activity test on mutant TRKA (G595R) (HTRF KinEASE TK). The class given is biochemical. The settings on record: 4.5 μM ATP, 30 min. The procedure, abridged:
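HTRF KinEASE TK format: 0.12 ng/μL recombinant TRKA (G595R), 1 μM biotinylated TK substrate, 4.5 μM ATP, 5 mM MgCl2, 1 mM DTT, 1% DMSO, 30 min at room temperature; detection overnight. IC50 from 10-point 4-fold series (1 μM to 0.004 nM, duplicates), 665/620 ratio, 4-parameter fit.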
(TR-FRET usually uses a lanthanide donor and a delayed reading to cut background.)

Data set [3] addresses T3, Recombinant human TRKA (Homo sapiens, UniProt P04629).
T3 construct: purchased Carna Biosciences
The experiment in a line: In vitro activity test on TRKA kinase (HTRF KinEASE TK). The class given is biochemical. The settings on record: 14.68 μM ATP, 40 min. The procedure, abridged:
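Reaction: 0.2 ng/μL TRKA, 1 μM biotinylated TK substrate, 14.68 μM ATP, 5 mM MgCl2, 1 mM DTT, 1% DMSO, 40 min at room temperature. Compounds tested at 1 μM to 0.05 nM (10-point, 3-fold, duplicate). HTRF 665/620 ratio converted to % inhibition versus no-compound control; IC50 by 4-parameter fit.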

The target in data set [4] is T4, recombinant human TRKA (G667C) (Homo sapiens, UniProt P04629, G667C).
T4 construct: purchased SignalChem
In words: In vitro activity test on mutant TRKA (G667C) (HTRF KinEASE TK). The settings on record: 5.5 μM ATP, 30 min. The class given is biochemical. The procedure, abridged: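 HTRF KinEASE TK format with recombinant human TRKA G667C (0.026 ng/μL), 1 μM biotinylated TK substrate, 5.5 […] ATP, 5 mM MgCl2, 1 mM DTT, 1% DMSO; 30 min at room temperature. Detection overnight; 665/620 ratio gives % inhibition, IC50 from 4-parameter fit over 10 doses (1 μM–0.004 nM).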

The target of data set [5] is T5, Recombinant human TRKC (Homo sapiens, UniProt Q16288).
T5 construct: purchased Carna Biosciences
In words: In vitro activity test on TRKC kinase (HTRF KinEASE TK). The class given is biochemical. The settings on record: 25.64 μM ATP, 40 min. The procedure, abridged: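 Recombinant human TRKC (0.037 ng/μL) with 1 μM biotinylated TK substrate, 25.64 μM ATP, 5 mM MgCl2, 1 mM DTT, 40 min at room temperature; compound 1 μM to 0.05 nM, 1% DMSO. HTRF 665/620 ratio after overnight detection; IC50 from 4-parameter fit.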

A short description of data set [6]: Pharmacokinetics experiment in mice. The class given is in vivo, ICR mice. The following applies: mouse, 5 mg/kg; for Cmax / half-life / AUC(0-t): ICR, plasma, po; for AUC(0-t) / F: p.o.; for AUC(0-t): read-out: AUC0-24 hr. The protocol: Biological Test Example 6: Pharmacokinetics Experiment of Small Molecular Inhibitors of the Present Invention in Mice
Tested compounds were administered to ICR mice via intravenous administration (IV) and para-oral (PO) administration, and blood samples were taken at different time points. The concentration of the tested article in mouse plasma was measured by LC-MS/MS, and relevant parameters were calculated. Specifically, a desired amount of a compound to be tested was taken and formulated in 5% DMSO+10% Solutol+85% injection water to form a solution at desired concentration for intravenous administration or para-oral administration. Animals were about 6-8 weeks old when the administration experiment started. Blood collection time for intravenous administration: 0.083 h, 0.25 h, 0.5 h, 1 h, 2 h, 4 h, 8 h, and 24 h after administration. Blood collection time for oral administration: 0.25 h, 0.5 h, 1 h, 2 h, 4 h, 6 h, 8 h and 24 h after administration. The biological sample analysis method and sample detection method were established. The pharmacokinetic parameters were calculated using Phoenix Winnonlin 7.0 software according to plasma concentration data at different time points, such as AUC(0-t), AUC(0-∞), T½, Cmax, Tmax, and MRT.

Data set [7] concerns the target T6, ΔTRKA(G595R) (Homo sapiens, UniProt P04629, G595R, form not given).
T6 construct: NIH-3T3 cell line stably expressing ΔTRKA or ΔTRKA(G595R) was constructed by plasmid transfection
The experiment in a line: Detection of TRK kinase activity on cellular level by ELISA, ΔTRKA(G595R)/NIH-3T3 cells. The class given is cell-based. The following applies: NIH-3T3 cells stably expressing ΔTRKA(G595R), 2 hours treatment. On the procedure:
Biological Test Example 4: Detection of TRK Kinase Activity on Cellular Level by ELISA
NIH-3T3 cell line stably expressing ΔTRKA or ΔTRKA(G595R) was constructed by plasmid transfection.
On the first day, cells were seeded into a 96-well cell culture plate, 10000 cells/well in the medium (DMEM+10% FBS). On the second day, different concentrations of test compounds were added to treat cells for 2 hours, then the cell culture plate was placed on ice; and the supernatant was removed and washed with pre-cooled PBS once. The cells were lysed with NP40 lysis buffer containing protease and phosphatase inhibitor, transferred to an antibody pre-coated plate, and sealed to incubate overnight at 4° C. The remaining steps were proceeded according to the method provided in the ELISA kit (eg, as described in R&D DYC2578-2), results were shown in Table 2.

For data set [8], the system named is KM12-LUC cells. The experiment in a line: KM12-LUC cell proliferation experiment (CellTiter-Glo, 72 hours). The class given is cell-based. The settings on record: Homo sapiens; KM12-LUC cells expressing TPM3-NTRK1 fusion gene. From the text: Biological Test Example 3: KM12-LUC Cell Proliferation Experiment
Human colon cancer cell line KM12-LUC (LUC, stably expressing Luciferase) expressing TPM3-NTRK1 fusion gene was used to evaluate cellular activity of the compounds cellular level. The TRK fusion gene in KM12-LUC cells makes it independent on the stimulation of extracellular growth factor, sustainably self-activate and activate the downstream signal pathway associated with cell proliferation such as MAPK-ERK, PI3K-AKT, or the like. […] The method was as follows: On the first day, the cells were seeded into 384-well plates at 2,000 cells/well; on the second day, different concentrations of test compounds were added; and on the 5th day, CellTiter-Glo (Promega) was added to detect cellular potency, and 72 hours cell proliferation inhibition rate was calculated. Statistical analysis was carried out by Prism5 and the inhibition rate of the test compound were calculated, as shown in FIG. 1.

T1 sequence (Q16620 32-822): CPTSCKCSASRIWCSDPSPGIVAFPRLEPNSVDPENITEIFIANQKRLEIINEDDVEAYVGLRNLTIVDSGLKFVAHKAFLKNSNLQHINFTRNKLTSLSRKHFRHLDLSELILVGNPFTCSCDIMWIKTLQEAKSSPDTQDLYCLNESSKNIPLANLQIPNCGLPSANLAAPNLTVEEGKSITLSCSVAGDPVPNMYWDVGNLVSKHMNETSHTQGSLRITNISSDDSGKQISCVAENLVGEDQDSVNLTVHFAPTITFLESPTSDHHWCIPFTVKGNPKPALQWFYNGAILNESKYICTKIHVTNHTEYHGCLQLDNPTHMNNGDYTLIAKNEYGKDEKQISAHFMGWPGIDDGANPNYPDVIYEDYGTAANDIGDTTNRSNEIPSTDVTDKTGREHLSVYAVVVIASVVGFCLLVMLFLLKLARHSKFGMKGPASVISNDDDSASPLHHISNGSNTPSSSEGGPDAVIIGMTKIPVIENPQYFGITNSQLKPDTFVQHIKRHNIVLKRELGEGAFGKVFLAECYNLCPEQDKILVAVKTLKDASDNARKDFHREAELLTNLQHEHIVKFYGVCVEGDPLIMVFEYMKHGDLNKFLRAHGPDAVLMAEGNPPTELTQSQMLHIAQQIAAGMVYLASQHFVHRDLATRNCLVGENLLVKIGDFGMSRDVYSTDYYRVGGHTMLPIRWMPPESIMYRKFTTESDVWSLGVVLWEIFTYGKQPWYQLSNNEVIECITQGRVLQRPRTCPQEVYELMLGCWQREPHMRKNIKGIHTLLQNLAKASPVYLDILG
T3 sequence (P04629 33-796): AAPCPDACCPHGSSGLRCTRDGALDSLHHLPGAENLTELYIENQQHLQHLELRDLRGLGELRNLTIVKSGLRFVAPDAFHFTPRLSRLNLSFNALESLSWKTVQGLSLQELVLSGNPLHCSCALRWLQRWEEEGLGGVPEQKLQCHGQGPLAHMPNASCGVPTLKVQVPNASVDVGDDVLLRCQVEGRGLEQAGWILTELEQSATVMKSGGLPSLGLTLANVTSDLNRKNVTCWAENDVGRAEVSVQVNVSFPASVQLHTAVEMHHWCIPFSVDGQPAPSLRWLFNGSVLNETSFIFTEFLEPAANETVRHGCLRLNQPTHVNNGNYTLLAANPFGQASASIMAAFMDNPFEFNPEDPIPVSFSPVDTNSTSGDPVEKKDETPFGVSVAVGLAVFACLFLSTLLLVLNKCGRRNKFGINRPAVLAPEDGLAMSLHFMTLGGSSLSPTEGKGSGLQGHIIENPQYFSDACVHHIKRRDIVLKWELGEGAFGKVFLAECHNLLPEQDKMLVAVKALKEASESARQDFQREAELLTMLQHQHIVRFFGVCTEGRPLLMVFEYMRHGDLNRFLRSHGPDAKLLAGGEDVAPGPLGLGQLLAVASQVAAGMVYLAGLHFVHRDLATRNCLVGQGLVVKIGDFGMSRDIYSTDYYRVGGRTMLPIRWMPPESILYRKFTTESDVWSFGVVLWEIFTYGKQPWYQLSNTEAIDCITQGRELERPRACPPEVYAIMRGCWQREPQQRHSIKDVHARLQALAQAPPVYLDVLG
T4 sequence (P04629 33-796 G667C): as the sequence (P04629 33-796) above, with G635C counted along it
T2 sequence (P04629 33-796 G595R): as the sequence (P04629 33-796) above, with G563R counted along it
T5 sequence (Q16288 32-839): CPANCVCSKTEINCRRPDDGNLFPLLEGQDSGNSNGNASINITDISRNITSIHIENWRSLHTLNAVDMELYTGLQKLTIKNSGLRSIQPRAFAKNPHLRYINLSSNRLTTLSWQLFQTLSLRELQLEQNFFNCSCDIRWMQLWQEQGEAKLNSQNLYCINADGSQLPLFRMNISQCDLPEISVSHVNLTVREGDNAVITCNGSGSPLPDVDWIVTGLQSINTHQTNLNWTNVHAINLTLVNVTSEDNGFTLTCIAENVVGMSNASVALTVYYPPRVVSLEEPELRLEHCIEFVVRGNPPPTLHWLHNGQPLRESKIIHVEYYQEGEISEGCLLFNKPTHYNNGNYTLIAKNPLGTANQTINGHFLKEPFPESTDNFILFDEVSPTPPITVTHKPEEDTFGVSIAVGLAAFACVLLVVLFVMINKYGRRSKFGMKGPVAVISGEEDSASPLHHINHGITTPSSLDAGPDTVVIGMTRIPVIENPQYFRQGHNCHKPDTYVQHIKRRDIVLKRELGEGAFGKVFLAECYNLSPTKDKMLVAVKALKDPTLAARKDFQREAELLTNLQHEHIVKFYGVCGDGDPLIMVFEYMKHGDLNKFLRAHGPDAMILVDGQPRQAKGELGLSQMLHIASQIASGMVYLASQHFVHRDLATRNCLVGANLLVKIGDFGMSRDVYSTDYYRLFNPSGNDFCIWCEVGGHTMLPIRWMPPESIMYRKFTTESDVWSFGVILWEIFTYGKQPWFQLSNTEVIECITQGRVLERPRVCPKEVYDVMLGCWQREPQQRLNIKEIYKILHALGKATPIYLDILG
T6 sequence (P04629 440-796 G595R limits assumed, form open): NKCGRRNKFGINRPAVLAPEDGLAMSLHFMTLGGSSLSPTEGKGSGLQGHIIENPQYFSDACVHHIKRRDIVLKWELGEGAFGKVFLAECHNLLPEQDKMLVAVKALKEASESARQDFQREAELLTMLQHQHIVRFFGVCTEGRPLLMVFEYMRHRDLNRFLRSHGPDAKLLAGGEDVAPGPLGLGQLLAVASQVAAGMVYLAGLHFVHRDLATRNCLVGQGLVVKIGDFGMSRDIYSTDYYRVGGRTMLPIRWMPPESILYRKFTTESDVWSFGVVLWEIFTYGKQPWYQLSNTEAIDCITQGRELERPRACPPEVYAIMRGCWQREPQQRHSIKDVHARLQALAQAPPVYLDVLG

The IC50 is the concentration at which inhibition is half-maximal. As usually defined, the Cmax is the highest concentration seen after dosing. The term half-life denotes the time in which the quantity being followed falls by half. Read a low half-life as rapid decline. On to `Fc1ccc(F)c([C@H]2C[C@H](F)CN2c2ccc3ncc(Cl)c(-c4cnn(C5CCNCC5)c4)c3n2)c1` [Example 16, 7-chloro-2-((2R,4S)-2-(2,5-difluorophenyl)-4-fluoropyrrolidin-1-yl)-8-(1-(piperidin-4-yl)-1H-pyrazol-4-yl)-1,5-naphthyridine], for which the IC50 in data set [1] was < 1 nM; in data set [2], < 10 nM; in data set [3] it was < 1 nM; in data set [4], < 1 nM; in data set [5], < 1 nM. The same compound registered a Cmax in data set [6] of 714 ng/mL. The compound also gave a half-life in data set [6] of 2.34 h. The AUC(0-t) in data set [6] is 3230 ng·h/mL. Further, the F in data set [6] came to 107%.

`O[C@@H]1CCN(c2ccc(-c3c(Cl)cnc4ccc(N5C[C@@H](F)C[C@@H]5c5cc(F)ccc5F)nc34)cn2)C1` [Example 65, (R)-1-(5-(3-chloro-6-((2R,4S)-2-(2,5-difluorophenyl)-4-fluoropyrrolidin-1-yl)-1,5-naphthyridin-4-yl)pyridin-2-yl)pyrrolidin-3-ol]: the IC50 in data set [1] is < 10 nM; in data set [2], < 10 nM; in data set [7], < 10 nM; in data set [3], < 1 nM; in data set [8], < 10 nM; in data set [4], < 10 nM. The IC50 in data set [5] was < 10 nM.

As for `Fc1ccc(F)c([C@H]2C[C@H](F)CN2c2ccc3ncc(F)c(-c4cnn(C5CCNCC5)c4)c3n2)c1` [Example 20], the IC50 in data set [1], in data set [2], in data set [3], in data set [4] and in data set [5] was < 1 nM throughout. Besides, the Cmax in data set [6] was found to be 448 ng/mL. The half-life in data set [6] is 2.82 h. In addition, the AUC(0-t) in data set [6] worked out at 2700 ng·h/mL. In data set [6], this compound displayed an F of 144%.

For `Fc1ccc(F)c([C@H]2C[C@H](F)CN2c2ccc3ncc(Cl)c(-c4ccc(C5CCNCC5)nc4)c3n2)c1` [Example 63, 7-chloro-2-((2R,4S)-2-(2,5-difluorophenyl)-4-fluoropyrrolidin-1-yl)-8-(6-(piperidin-4-yl)pyridin-3-yl)-1,5-naphthyridine], the IC50 in data set [1] is < 10 nM; in data set [2] it was < 10 nM; in data set [7], < 10 nM; in data set [3] it was < 1 nM; in data set [8], < 10 nM; in data set [5], < 10 nM.

Take `O=C1CNCCN1c1ccc(-c2c(F)cnc3ccc(N4C[C@@H](F)C[C@@H]4c4cc(F)ccc4F)nc23)cn1` [Example 97, 1-(5-(6-((2R,4S)-2-(2,5-difluorophenyl)-4-fluoropyrrolidin-1-yl)-3-fluoro-1,5-naphthyridin-4-yl)pyridin-2-yl)piperazin-2-one]: the IC50 in data set [1] was < 10 nM; in data set [3] it was < 1 nM; in data set [8], < 10 nM; in data set [5], < 1 nM.

For the compound `O=C(Nc1c(Cl)cnc2ccc(N3C[C@@H](F)C[C@@H]3c3cc(F)ccc3F)nc12)N1CC[C@H](O)C1` [Example 49, (S)-N-(3-Chloro-6-((2R,4S)-2-(2,5-difluorophenyl)-4-fluoropyrrolidin-1-yl)-1,5-naphthyridin-4-yl)-3-hydroxypyrrolidin-1-carboxamide], the IC50 in data set [1] was < 1 nM; in data set [2], < 10 nM; in data set [3], < 1 nM; in data set [4], < 10 nM; in data set [5], < 10 nM.

Consider `O[C@H]1CCN(c2ncc(-c3ncnc4ccc(N5C[C@@H](F)C[C@@H]5c5cc(F)ccc5F)nc34)cn2)C1` [Example 72, (S)-1-(5-(6-((2R,4S)-2-(2,5-difluorophenyl)-4-fluoropyrrolidin-1-yl)pyrido[3,2-d]primidin-4-yl)pyrimidin-2-yl)pyrrolidin-3-ol], for which the IC50 in data set [1] is < 1 nM; in data set [2] it was < 1 nM; in data set [3], < 1 nM; in data set [4], < 10 nM; in data set [5], < 1 nM.

For the compound `Fc1ccc(F)c([C@H]2C[C@H](F)CN2c2ccc3nccc(-c4cnn(C5CCNCC5)c4)c3n2)c1` [Example 11, 2-((2R,4S)-2-(2,5-difluorophenyl)-4-fluoropyrrolidin-1-yl)-8-(1-(piperidin-4-yl)-1H-pyrizol-4-yl)-1,5-naphthyridine], the IC50 in data set [1], in data set [2], in data set [3], in data set [4] and in data set [5] was < 1 nM throughout.

For the compound `Fc1ccc(F)c([C@H]2C[C@H](F)CN2c2ccc3ncc(Cl)c(-c4cnc(C5CCNCC5)s4)c3n2)c1` [Example 50, 5-(3-Chloro-6-((2R,4S)-2-(2,5-difluorophenyl)-4-fluoropyrrolidin-1-yl)-1,5-naphthyridin-4-yl)-2-(piperidin-4-yl)thiazole], the IC50 was < 10 nM in data set [1]; < 10 nM in data set [2]; < 1 nM in data set [3]; < 10 nM in data set [4]; < 10 nM in data set [5].

On to `Fc1ccc(F)c([C@H]2C[C@H](F)CN2c2ccc3nccc(-c4cnn(C5CCOCC5)c4)c3n2)c1` [Example 12, 2-((2R,4S)-2-(2,5-difluorophenyl)-4-fluoropyrrolidin-1-yl)-8-(1-(tetrahydro-2H-pyran-4-yl)-1H-pyrazol-4-yl)-1,5-naphthyridine], for which the IC50 in data set [1], in data set [2], in data set [3], in data set [4] and in data set [5] was < 1 nM each time.

With `NC(=O)c1cnc2ccc(N3C[C@@H](F)C[C@@H]3c3cc(F)ccc3F)nc2c1-c1cnn(C2CCNCC2)c1` [Example 37, 6-((2R,4S)-2-(2,5-difluorophenyl)-4-fluoropyrrolidin-1-yl)-4-(1-(piperidin-4-yl)-1H-pyrazol-4-yl)-1,5-naphthyridin-3-carboxamide], the IC50 was < 10 nM in data set [1]; < 10 nM in data set [2]; < 1 nM in data set [3]; < 50 nM in data set [4]; < 10 nM in data set [5].
